Key:
[1] = test system: Monocotyledonous and dicotyledonous test plants; assay: Post-emergence herbicidal action, greenhouse pot test, sprayed at the 2- to 3-leaf stage, 9-level rating after 2 to 3 weeks; assay type: in vivo; design: key: 9-level scale: 1 = complete damage, 9 = no effect; conditions: 250 g/ha, rated after 2 to 3 weeks, 9-level scale
How it was run: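 Plants grown in standard soil in pots; test substances sprayed at the 2- to 3-leaf stage at optimum dosage (500 l water/ha) as aqueous suspension or emulsion from formulated concentrates. Plants then kept in the greenhouse under optimum conditions; rated after 2 to 3 weeks on a 9-level scale (1=complete damage, 9=no effect).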

[2] = test system: Monocotyledonous and dicotyledonous test plants; assay: Herbicidal action before emergence of the plants (pre-emergence action), greenhouse pot test, 9-level rating after 4 weeks; assay type: in vivo; design: key: 9-level scale: 1 = complete damage, 9 = no effect; conditions: 250 g/ha, rated after 4 weeks, 9-level scale
How it was run: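 Compounds applied pre-emergence as a spray (500 l water/ha) of aqueous suspension or emulsion onto soil immediately after sowing mono- and dicot species in pots. Greenhouse-grown; damage rated after 4 weeks on a 9-level scale (1=complete damage, 9=no effect).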

Row | Structure (SMILES) | Post-emergence action rating, Abutilon [1] | Post-emergence action rating, Amaranth [1] | Post-emergence action rating, Chenop. [1] | Post-emergence action rating, Digitaria [1] | Post-emergence action rating, Echino. [1] | Post-emergence action rating, Ipopur. [1] | Post-emergence action rating, Panicum [1] | Post-emergence action rating, Xanth. [1] | Pre-emergence action rating, Abutilon [2] | Pre-emergence action rating, Amaranthus [2] | Pre-emergence action rating, Chenop. [2] | Pre-emergence action rating, Digitaria [2] | Pre-emergence action rating, Echino. [2] | Pre-emergence action rating, Panicum [2]
1 | O=C(C1=C(O)C2CCC(C2)C1=O)c1ccc(C(F)(F)F)nc1COC1COC1 (stereo not shown) [A24-B52] | 2 | 2 | 1 | 2 | 2 | 2 | 2 | 2 | 1 | 1 | 1 | 1 | 1 | 1
2 | O=C(C1=C(O)C2CCC(C2)C1=O)c1ccc(C(F)(F)F)nc1COC1CCCCC1 (stereo not shown) [A27-B52] | 3 | 2 | 5 | 2 | 2 | 4 | 1 | 2 | 4 | 1 | 3 | 2 | 3 | 1
3 | CCN(CC)CC.O=C(C1=C(O)C2CCC(C2)C1=O)c1ccc(C(F)(F)F)nc1COC1CCCCO1 (stereo not shown) [A28-B52 (Et3NH+)] | 2 | 2 | 1 | 2 | 2 | 2 | 1 | 3 | 3 | 1 | – | 2 | 2 | 1
4 | O=C(C1=C(O)C2CCC(C2)C1=O)c1ccc(C(F)(F)F)nc1COC1CCCCO1 (stereo not shown) [A28-B52] | 2 | 1 | 1 | 2 | 2 | 4 | 1 | 3 | 2 | 3 | – | 2 | 2 | 1
5 | O=C(C1=C(O)C2CCC(C2)C1=O)c1ccc(C(F)(F)F)nc1COCC1CC1 (stereo not shown) [A56-B52] | 2 | 1 | 1 | 2 | 2 | 2 | 1 | 2 | 3 | 1 | 1 | 2 | 1 | 1
6 | O=C(C1=C(O)C2CCC(C2)C1=O)c1ccc(C(F)(F)F)nc1COCC1CO1 (stereo not shown) [A57-B52 (H5), 4-Hydroxy-3-(2-oxiranylmethoxymethyl-6-trifluoromethylpyridine-3-carbonyl)-bicyclo[3.2.1]oct-3-en-2-one] | 1 | 1 | 1 | 1 | 2 | 2 | 1 | 2 | 1 | 1 | 1 | 1 | 1 | 1
7 | O=C(C1=C(O)C2CCC(C2)C1=O)c1ccc(C(F)(F)F)nc1COCC1CCCCO1 (stereo not shown) [A63-B52] | 2 | 2 | 2 | 2 | 2 | 2 | 1 | 2 | 5 | 3 | – | 3 | 1 | 2
8 | O=C(C1=C(O)C2CCC(C2)C1=O)c1ccc(C(F)(F)F)nc1COCc1ccccc1 (stereo not shown) [A67-B52] | 2 | 2 | 1 | 2 | 2 | 3 | 2 | 2 | 3 | 2 | 1 | 2 | 2 | 1
9 | COCCOCc1nc(C(F)(F)Cl)ccc1C(=O)C1=C(O)C2CCC(C2)C1=O (stereo not shown) [A556-B52] | 1 | 2 | 1 | 2 | 2 | 2 | 1 | 2 | 1 | 2 | 1 | 1 | 1 | 1
10 | COCCOCc1nc(C(F)F)ccc1C(=O)C1=C(O)C2CCC(C2)C1=O (stereo not shown) [A646-B52] | 2 | 2 | 1 | 2 | 2 | 2 | 1 | 2 | 1 | 2 | 1 | 1 | 1 | 1
11 | COCCOCc1c(C(=O)C2=C(O)C3CCC(C3)C2=O)ccc(C(F)(F)F)[n+]1[O-] (stereo not shown) [A736-B52] | 1 | 1 | 1 | 1 | 2 | 2 | 1 | 2 | 1 | 1 | 1 | 4 | 2 | 1

Reference: US7378375B1, “Substituted pyridine herbicides” (Syngenta Crop Protection, Inc., priority 2000, dated 2008)
